From ChEMBL document CHEMBL1143233, “Synthesis, characterization and evaluation of benzimidazole derivative and its precursors as inhibitors of MDA-MB-231 human breast cancer cell proliferation” (2008)

test system: MDA-MB-231; test: Antiproliferative activity against human MDA-MB-231 cells at 2 mM after 72 hrs by MTS/PMS assay; conditions: MDA-MB-231, 72 h

In order of rising inhibition at 2000 µM:
1. N#Cc1ccc(NC(=O)c2ccc(NCc3ccc(F)cc3)c([N+](=O)[O-])c2)cc1C(F)(F)F  0%
2. N#Cc1ccc(NC(=O)c2ccc(NCc3ccc(F)cc3)c(NC(=O)c3ccc(Cl)cc3Cl)c2)cc1C(F)(F)F  0%
3. N#Cc1ccc(NC(=O)c2ccc(NCc3ccc(F)cc3)c(N)c2)cc1C(F)(F)F  9.8%
4. N#Cc1ccc(NC(=O)c2ccc3c(c2)nc(-c2ccc(Cl)cc2Cl)n3Cc2ccc(F)cc2)cc1C(F)(F)F  26.1%
5. N#Cc1ccc(NC(=O)c2ccc(F)c([N+](=O)[O-])c2)cc1C(F)(F)F  60%
